Biological target: T1, human mGluR4 (Homo sapiens, UniProt Q14833)
T1 construct: expressed in transfected cells; host or cells: HEK-293
Test: mGluR4 Assay on HEK-Expressing Human mGluR4 (FLIPR Ca2+ fluorescence, PAM activity)
Format: cell-based
Conditions: Table I; human mGluR4 HEK-293 cells, Fluo4-AM/FLIPR, stimulated with glutamate EC25
Method: mGluR4 Assay on HEK-Expressing Human mGluR4
Since, as explained above, the compounds of the present invention are positive allosteric modulators of mGluR4 receptors, which activity was assayed by detecting changes in intracellular Ca^+2 ion concentration using a Ca^+2-sensitive fluorescent dye (Fluo4-(AM)) and a fluorometric imaging plate reader (FLIPR, Molecular Devices, Sunnyvale, Calif.) in accordance with the manufacturers instructions.
Accordingly, 24 hours prior to carrying out an analysis, human mGluR4 HEK-293 cells were plated out in black-walled, clear-bottomed, poly-L-ornithine-coated 384-well plates at a density of 25,000 cells/well in a glutamine/glutamate-free DMEM medium containing fetal bovine serum (10%), penicillin (100 units/mL) and streptomycin (100 micrograms/mL) at 37° C. under 5% CO2. On the day of the assay, the medium was aspirated and the cells were loaded with a 3 micro-molar solution of Fluo4-AM (LuBioScience, Lucerne, Switzerland) in 0.03% pluronic acid. After maintaining the plate 1 hour at 37° C. under 5% CO2 the non-incorporated dye was removed by washing the cell plate with the assay buffer and the cells were left in the dark at room temperature for six hours before evaluating. All assays were performed in a pH 7.4 buffered-solution containing 20 mM HEPES, 142 mM NaCl, 6 mM KCl, 1 mM MgSO4, 1 mM CaCl2, 0.125 mM sulfapyrazone, and 1% glucose.
Basal fluorescence was recorded over 10 seconds, then aliquots of various concentrations of a compound of the invention were added to the cells. Changes in fluorescence level were first monitored for 180 seconds in order to detect any agonist activity attributable to the compound being assayed. Then the cells were stimulated for an additional 110 seconds by that concentration of glutamate yielding 25% of the maximal response to glutamate (EC25). Concentration-response curves of compounds of the invention were generated using Prism GraphPad software (Graph Pad Inc., San Diego, USA). Curves generated were fitted to a four-parameter logistic equation allowing the determination of EC50 values:
Y=Bottom+(Top−Bottom)/(1+10^logEC^50-^X)*Hill Slope.
For each sample assayed, at least three independent measurements were performed. EC50 values thus determined are reported for each of the compounds of the invention in the respective Tables 1 to 3 herein above.

T1 sequence (Q14833 33-912): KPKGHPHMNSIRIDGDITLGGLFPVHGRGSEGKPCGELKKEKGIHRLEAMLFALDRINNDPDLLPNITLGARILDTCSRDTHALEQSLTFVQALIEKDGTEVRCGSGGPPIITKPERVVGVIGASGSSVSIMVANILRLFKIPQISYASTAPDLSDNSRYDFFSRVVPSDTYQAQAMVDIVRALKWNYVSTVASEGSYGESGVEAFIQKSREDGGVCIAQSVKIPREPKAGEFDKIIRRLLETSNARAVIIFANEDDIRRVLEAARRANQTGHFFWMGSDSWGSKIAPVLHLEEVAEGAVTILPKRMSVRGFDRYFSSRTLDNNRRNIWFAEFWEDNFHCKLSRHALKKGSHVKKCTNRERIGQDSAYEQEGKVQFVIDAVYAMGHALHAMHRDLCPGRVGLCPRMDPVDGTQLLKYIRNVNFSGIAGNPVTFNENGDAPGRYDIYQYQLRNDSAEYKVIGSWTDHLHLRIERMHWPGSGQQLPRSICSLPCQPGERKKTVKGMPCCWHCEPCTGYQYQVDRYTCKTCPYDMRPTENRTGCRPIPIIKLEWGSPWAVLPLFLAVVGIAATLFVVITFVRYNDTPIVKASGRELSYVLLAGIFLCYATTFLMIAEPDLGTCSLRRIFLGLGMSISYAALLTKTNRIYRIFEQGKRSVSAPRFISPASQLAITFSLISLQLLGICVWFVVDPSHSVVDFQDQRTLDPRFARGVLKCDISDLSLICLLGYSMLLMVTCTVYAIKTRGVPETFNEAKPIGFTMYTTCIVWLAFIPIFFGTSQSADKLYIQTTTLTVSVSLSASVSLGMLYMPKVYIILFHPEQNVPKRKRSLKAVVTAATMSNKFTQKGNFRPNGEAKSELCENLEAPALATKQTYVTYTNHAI

SMILES	EC50 [nM]
CC1Cc2sc(Nc3ncccn3)nc2-c2cn[nH]c21 (stereo not drawn) [Cmpd 9, 5-methyl-N-(pyrimidin-2-yl)-5,6-dihydro-4H-[1,3]thiazolo[4,5-e]indazol-2-amine]	2
c1cnc(Nc2nc3c(s2)C2(CC2)Cc2[nH]ncc2-3)nc1 [Cmpd 12, N-(pyrimidin-2-yl)-5′-6′-dihydrospiro[cyclopropane-1,4′-[1,3]thiazolo[4,5-e]indazol]-2′-amine]	35
Clc1cc2sc(Nc3ncccn3)nc2c2cn[nH]c12 [Cmpd 7, 5-chloro-N-(pyrimidin-2-yl)-6H-[1,3]thiazolo[4,5-e]indazol-2-amine]	2
Cc1ccnc(Nc2nc3c(cc(C)c4[nH]ncc43)s2)n1 [Cmpd 8, 5-methyl-N-(4-methylpyrimidin-2-yl)-6H-[1,3]thiazolo[4,5-e]indazol-2-amine]	129
Cc1ccnc(Nc2nc3c(ccc4[nH]ncc43)s2)n1 [Cmpd 2, N-(4-methylpyrimidin-2-yl)-6H-[1,3]thiazolo[4,5-e]indazol-2-amine]	28
CC1(C)Cc2[nH]ncc2-c2nc(Nc3ncc(F)cn3)sc21 [Cmpd 4, N-(5-fluoropyrimidin-2-yl)-4,4-dimethyl-5,6-dihydro-4H-[1,3]thiazolo[4,5-e]indazol-2-amine]	753
Cc1ccnc(Nc2nc3c(s2)C2(CC2)Cc2[nH]ncc2-3)n1 [Cmpd 11, N-(4-methylpyrimidin-2-yl)-5′,6′-dihydrospiro[cyclopropane-1,4′-[1,3]thiazolo[4,5-e]indazol]-2′-amine]	545
Brc1cc2sc(Nc3ncccn3)nc2c2cn[nH]c12 [Cmpd 6, 5-bromo-N-(pyrimidin-2-yl)-6H-[1,3]thiazolo[4,5-e]indazol-2-amine]	1
c1cnc(Nc2nc3c(ccc4[nH]ncc43)s2)nc1 [Cmpd 3, N-(pyrimidin-2-yl)-6H-[1,3]thiazolo[4,5-e]indazol-2-amine]	9
Cc1ccnc(Nc2nc3c(s2)C(C)(C)Cc2[nH]ncc2-3)n1 [Cmpd 1, 4,4-dimethyl-N-(4-methylpyrimidin-2-yl)-5,6-dihydro-4H-[1,3]thiazolo[4,5-e]indazol-2-amine]	326
Fc1cnc(Nc2nc3c(s2)C2(CC2)Cc2[nH]ncc2-3)nc1 [Cmpd 13, N-(5-fluoropyrimidin-2-yl)-5′,6′-dihydrospiro[cyclopropane-1,4′-[1,3]thiazolo[4,5-e]indazol]-2′-amine]	93
Cc1ccnc(Nc2nc3c(s2)CC(C)c2[nH]ncc2-3)n1 (stereo not drawn) [Cmpd 10, 5-methyl-N-(4-methylpyrimidin-2-yl)-5,6-dihydro-4H-[1,3]thiazolo[4,5-e]indazol-2-amine]	36
Cc1nc(Nc2nc3c(s2)C(C)(C)Cc2[nH]ncc2-3)ncc1F [Cmpd 5, N-(5-fluoro-4-methylpyrimidin-2-yl)-4,4-dimethyl-5,6-dihydro-4H-[1,3]thiazolo[4,5-e]indazol-2-amine]	645

Same assay, conditions: Table II; human mGluR4 HEK-293 cells, Fluo4-AM/FLIPR, stimulated with glutamate EC25

SMILES	EC50 [nM]
Fc1cnc(Nc2nc3c(s2)CCCc2[nH]ncc2-3)nc1 [Cmpd 29, N-(5-fluoropyrimidin-2-yl)-4,5,6,7-tetrahydropyrazolo[3′,4′:6,7]cyclohepta[1,2-d][1,3]thiazol-2-amine]	39
Fc1cnc(Nc2nc3c(s2)COCc2[nH]ncc2-3)nc1 [Cmpd 15, N-(5-fluoropyrimidin-2-yl)-6,7-dihydro-4H-pyrazolo[4′,3′:5,6]oxepino[4,3-d][1,3]thiazol-2-amine]	8
Cc1ccnc(Nc2nc3c(s2)CN(C)Cc2[nH]ncc2-3)n1 [Cmpd 28, 5-methyl-N-(4-methylpyrimidin-2-yl)-4,5,6,7-tetrahydropyrazolo[3,4-c][1,3]thiazolo[4,5-e]azepin-2-aminee]	2380
Cc1ccnc(Nc2nc3c(s2)COC(C)c2[nH]ncc2-3)n1 (racemic) [Cmpd 18, N-(4-methylpyrimidin-2-yl)-6-methyl-6,7-dihydro-4H-pyrazolo[4′,3′:5,6]oxepino[4,3-d][1,3]-thiazol-2-amine]	3
Cc1ccnc(Nc2nc3c(s2)C(C)OCc2[nH]ncc2-3)n1 (stereo not drawn) [Cmpd 23, 4-methyl-N-(4-methylpyrimidin-2-yl)-6,7-dihydro-4H-pyrazolo[4′,3′:5,6]oxepino[4,3-d][1,3]thiazol-2-amine]	186
CCc1ccnc(Nc2nc3c(s2)COC(C)c2[nH]ncc2-3)n1 (stereo not drawn) [Cmpd 20, 6-Methyl-N-[4-(ethyl)pyrimidin-2-yl]-6,7-dihydro-4H-pyrazolo[4′,3′:5,6]oxepino[4,3-d][1,3]thiazol-2-amine]	173
Cc1ccnc(Nc2nc3c(s2)CCC(F)(F)c2[nH]ncc2-3)n1 [Cmpd 34, 6,6-difluoro-N-(4-methylpyrimidin-2-yl)-4,5,6,7-tetrahydropyrazolo[3′,4′:6,7]cyclohepta[1,2-d][1,3]thiazol-2-amine]	56
Cc1ccnc(Nc2nc3c(s2)COCc2[nH]ncc2-3)n1 [Cmpd 17, N-(4-methylpyrimidin-2-yl)-6,7-dihydro-4H-pyrazolo[4′,3′:5,6]oxepino[4,3-d][1,3]thiazol-2-amine]	10
COc1ccnc(Nc2nc3c(s2)COCc2[nH]ncc2-3)n1 [Cmpd 19, N-(4-methoxypyrimidin-2-yl)-6,7-dihydro-4H-pyrazolo[4′,3′:5,6]oxepino[4,3-d][1,3]thiazol-2-amine]	28
c1cnc(Nc2nc3c(s2)Cc2[nH]ncc2-3)nc1 [Cmpd 14, N-(pyrimidin-2-yl)-1,7-dihydropyrazolo[3′,4′:4,5]cyclopenta[1,2-d][1,3]thiazol-5-amine]	1420
Cc1ccnc(Nc2nc3c(s2)CCC(=O)c2[nH]ncc2-3)n1 [Cmpd 36, 2-[(4-methylpyrimidin-2-yl)amino]-4,7-dihydropyrazolo[3′,4′:6,7]cyclohepta[1,2-d][1,3]thiazol-6(5H)-one]	1500
Cc1nc(Nc2nc3c(s2)COC(C)c2[nH]ncc2-3)ncc1F (stereo not drawn) [Cmpd 21, N-(5-Fluoro-4-methylpyrimidin-2-yl)-6-methyl-6,7-dihydro-4H-pyrazolo[4′,3′:5,6]oxepino[4,3-d][1,3]thiazol-2-amine]	27
c1cnc(Nc2nc3c(s2)COCc2[nH]ncc2-3)nc1 [Cmpd 16, N-(pyrimidin-2-yl)-6,7-dihydro-4H-pyrazolo[4′,3′:5,6]oxepino[4,3-d][1,3]thiazol-2-amine]	7
Cc1ccnc(Nc2nc3c(s2)CC(F)Cc2[nH]ncc2-3)n1 (stereo not drawn) [Cmpd 40]	20
c1cnc(Nc2nc3c(s2)CNCc2[nH]ncc2-3)nc1 [Cmpd 27, N-(pyrimidin-2-yl)-4,5,6,7-tetrahydropyrazolo[3,4-c][1,3]thiazolo[4,5-e]azepin-2-amine]	994
Cc1ccnc(Nc2nc3c(s2)C(C)OC(C)c2[nH]ncc2-3)n1 (stereo not drawn) [Cmpd 24, 4,6-dimethyl-N-(4-methylpyrimidin-2-yl)-6,7-dihydro-4H-pyrazolo[4′,3′:5,6]oxepino-[4,3-d][1,3]thiazol-2-amine]	121

Same assay, conditions: text b34; human mGluR4 HEK-293 cells, glutamate EC25

SMILES	EC50 [nM]
Cc1nc(Nc2nc3c(s2)COC(C)c2[nH]ncc2-3)ns1 (stereo not drawn) [Cmpd 38]	70
